# Reference: US4496546A, “Erythromycin D and esters thereof” (Pfizer Inc., priority 1982, dated 1985)
# Read-outs that look alike come from different tables or passages of the source.
# Experiments:
# E. Coli 470 = test: in vitro MIC, tube serial dilution, 24 hour incubation; assay type: cell-based; conditions: Escherichia coli
# Procedure: (§1) Table I summarizes the results of in vitro MIC (minimum inhibitory concentration) tests. For this standard test, each organism is inoculated into a series of tubes containing nutrient medium and serially diluted concentrations of the antibiotic. The MIC is the lowest concentration of antibiotic which prevents growth of the microorganism over the 24 hour incubation test period.
# Hem. influ. 012 = test: as above; assay type: cell-based
# Procedure: as §1
# Hem. influ. 036 = test: as above; assay type: cell-based
# Procedure: as §1
# Neiss. Sicca 000 = test: as above; assay type: cell-based
# Procedure: as §1
# Past. mult. 001 = test: as above; assay type: cell-based
# Procedure: as §1
# Staph. aureus 005 = test: as above; assay type: cell-based
# Procedure: as §1
# Staph. aureus 052 = test: as above; assay type: cell-based
# Procedure: as §1
# Staph. aureus 400 = test: as above; assay type: cell-based
# Procedure: as §1
# Staph. epid. 111 = test: as above; assay type: cell-based
# Procedure: as §1
# Strep. faec. 006 = test: as above; assay type: cell-based
# Procedure: as §1
# Strep. pneum. 012 = test: as above; assay type: cell-based
# Procedure: as §1
# Strep. pyog. 203 = test: as above; assay type: cell-based
# Procedure: as §1
# Staph aureus 005 = test: in vivo oral protection against acute experimental infection in mice; conditions: read-out: PD50
# Text: (§2) In determining such activity, acute experimental infections are produced in mice by the intraperitoneal inoculation of the mice with a standardized culture of the test organism suspended in 5 percent hog gastric mucin. Infection severity is standardized so that the mice receive at least one LD100 dose of the organism (LD100 : the minimum inoculum of organism required to consistently kill 100 percent of the infected, nontreated control mice). The test compound is orally administered at various dosage levels to groups of infected mice at 1/2, 4 and 24 hours post infection. At the end of the test, the activity of the mixture is assessed by counting the number of survivors among treated animals at a given dose. Activity is expressed as the percentage of animals which survive at a given dose, or calculated as a PD50 (dose which protects 50% of the animals from infection).
# Strep pyogenes 203 = test: as above; conditions: Mus musculus, read-out: PD50
# Text: as §2
# [1] = test system: Gram-positive and Gram-negative bacteria; test: in vitro antibacterial activity (summary statement); assay type: cell-based; conditions: medium spectrum of Gram-positive and Gram-negative bacteria
# Procedure: as §1
# sensitive bacteria = test: in vivo activity against infections by sensitive bacteria (summary statement); conditions: mice, oral
# Text: as §2
# stability at acid pH = assay type: physicochemical; conditions: acid pH (2.5 to 5.0); unlike erythromycin A
# [2] = absorption via the oral route; assay type: in vivo
# [3] = Staphylococcus aureus, 400, 24 h
# [4] = Neiss. Sicca 000, read-out: MIC
# [5] = Staphylococcus aureus, 24 h, Staph. aureus 005, read-out: MIC
# [6] = Staphylococcus aureus, 24 h, Staph. aureus 052, read-out: MIC
# [7] = Staph. epid. 111, read-out: MIC
# [8] = Strep. faec. 006, read-out: MIC
# [9] = Strep. pneum. 012, read-out: MIC
# [10] = Strep. pyog. 203, read-out: MIC
# [11] = Staphylococcus aureus, mice, Staph aureus 005, oral dosage 1/2, 4 and 24 hours post infection
# [12] = mice, Strep pyogenes 203, oral dosage 1/2, 4 and 24 hours post infection
# [13] = Staphylococcus aureus, 24 h, Staph. aureus 400, read-out: MIC
compound,measurement,setting,value
CCC1OC(=O)C(C)C(OC2CC(C)(O)C(O)C(C)O2)C(C)C(OC2OC(C)CC(N(C)C)C2O)C(C)(O)CC(C)C(=O)C(C)C(O)C1C (centres unmarked) [Erythromycin D],MIC,E. Coli 470,3.12 µg/mL
same,MIC,Hem. influ. 012,25 µg/mL
same,MIC,Hem. influ. 036,50 µg/mL
same,MIC,Neiss. Sicca 000,6.25 µg/mL
same,MIC,Past. mult. 001,6.25 µg/mL
same,MIC,"Staph. aureus 005; Staphylococcus aureus, 005, 24 h",0.39 µg/mL
same,MIC,"Staph. aureus 052; Staphylococcus aureus, 052, 24 h",0.39 µg/mL
same,MIC,Staph. aureus 400; [3],6.25 µg/mL
same,MIC,Staph. epid. 111,0.2 µg/mL
same,MIC,Strep. faec. 006,0.39 µg/mL
same,MIC,Strep. pneum. 012,0.025 µg/mL
same,MIC,Strep. pyog. 203,0.025 µg/mL
same,ED50,"Staph aureus 005; Staphylococcus aureus, 005, po",57 mg/kg
same,ED50,Strep pyogenes 203; po,15 mg/kg
same,in vitro activity,[1],exhibit in vitro activity
same,in vivo activity,sensitive bacteria,exhibit in vivo activity
same,stability at acid pH,stability at acid pH,fairly stable
"CCC1OC(=O)C(C)C(OC2CC(C)(OC(C)=O)C(OC(C)=O)C(C)O2)C(C)C(OC2OC(C)CC(N(C)C)C2O)C(C)(O)CC(C)C(=O)C(C)C(O)C1C (centres unmarked) [3"",4""-Di-O-acetylerythromycin D]",MIC,"E. Coli 470; E. Coli 470, read-out: MIC",12.5 µg/mL
same,MIC,"Hem. influ. 012; Hem. influ. 012, read-out: MIC",> 50 µg/mL
same,MIC,"Hem. influ. 036; Hem. influ. 036, read-out: MIC",> 50 µg/mL
same,MIC,Neiss. Sicca 000; [4],25 µg/mL
same,MIC,Staph. aureus 005; [5],1.56 µg/mL
same,MIC,Staph. aureus 052; [6],3.12 µg/mL
same,MIC,Staph. aureus 400; [3],50 µg/mL
same,MIC,Staph. epid. 111; [7],0.39 µg/mL
same,MIC,Strep. faec. 006; [8],1.56 µg/mL
same,MIC,Strep. pneum. 012; [9],0.1 µg/mL
same,MIC,Strep. pyog. 203; [10],0.1 µg/mL
same,ED50,Staph aureus 005; [11],27 mg/kg
same,ED50,Strep pyogenes 203; [12],15 mg/kg
same,absorption via the oral route,[2],high degree of absorption
"CCC(=O)OC1C(C)OC(OC2C(C)C(=O)OC(CC)C(C)C(O)C(C)C(=O)C(C)CC(C)(O)C(OC3OC(C)CC(N(C)C)C3O)C2C)CC1(C)OC(C)=O (centres unmarked) [3""-O-Acetyl-4""-O-propionylerythromycin D]",MIC,"E. Coli 470; E. Coli 470, read-out: MIC",12.5 µg/mL
same,MIC,Hem. influ. 012,50 µg/mL
same,MIC,"Hem. influ. 036; Hem. influ. 036, read-out: MIC",> 50 µg/mL
same,MIC,Neiss. Sicca 000; [4],12.5 µg/mL
same,MIC,"Past. mult. 001; Past. mult. 001, read-out: MIC",12.5 µg/mL
same,MIC,Staph. aureus 005; [5],0.39 µg/mL
same,MIC,Staph. aureus 052; [6],0.78 µg/mL
same,MIC,Staph. aureus 400; [13],12.5 µg/mL
same,MIC,Staph. epid. 111; [7],0.2 µg/mL
same,MIC,Strep. faec. 006; [8],0.78 µg/mL
same,MIC,Strep. pneum. 012; [9],0.05 µg/mL
same,MIC,Strep. pyog. 203; [10],0.05 µg/mL
"CC[C@H]1OC(=O)[C@H](C)[C@@H](O[C@H]2C[C@@](C)(OC)[C@@H](O)[C@H](C)O2)[C@H](C)[C@@H](O[C@@H]2O[C@H](C)C[C@H](N(C)C)[C@H]2O)[C@](C)(O)C[C@@H](C)C(=O)[C@H](C)[C@@H](O)[C@]1(C)O [Erythromycin A, reference compound]",ED50,Staph aureus 005; [11],64 mg/kg
same,ED50,Strep pyogenes 203; [12],25 mg/kg
"CCC1OC(=O)C(C)C(OC2CC(C)(O)C(OC(C)=O)C(C)O2)C(C)C(OC2OC(C)CC(N(C)C)C2O)C(C)(O)CC(C)C(=O)C(C)C(O)C1C (centres unmarked) [4""-O-Acetylerythromycin D]",MIC,E. Coli 470,6.25 µg/mL
same,MIC,"Hem. influ. 012; Hem. influ. 012, read-out: MIC",50 µg/mL
same,MIC,"Hem. influ. 036; Hem. influ. 036, read-out: MIC",> 50 µg/mL
same,MIC,Neiss. Sicca 000; [4],25 µg/mL
same,MIC,"Past. mult. 001; Past. mult. 001, read-out: MIC",25 µg/mL
same,MIC,Staph. aureus 005; [5],3.12 µg/mL
same,MIC,Staph. aureus 052; [6],6.25 µg/mL
same,MIC,Staph. aureus 400; [13],> 50 µg/mL
same,MIC,Staph. epid. 111; [7],0.78 µg/mL
same,MIC,Strep. faec. 006; [8],3.12 µg/mL
same,MIC,Strep. pneum. 012; [9],0.39 µg/mL
same,MIC,Strep. pyog. 203; [10],0.2 µg/mL
same,ED50,Staph aureus 005; [11],139 mg/kg
same,ED50,Strep pyogenes 203; [12],40 mg/kg
